Measured values: PMC6290777, “Inhalation of the prodrug PI3K inhibitor CL27c improves lung function in asthma and fibrosis” (Nature Communications, 2018)

Columns and labels:
[1] = system: murine bone marrow-derived macrophages; assay: BMDM migration (Boyden chamber); assay type: cell-based, mouse; settings: CXCL12 100 nM and C5a 50 nM; CL27c 1 and 10 µM
Description: For the migration assay, BMDMs (isolated as above described) were pretreated with Versene (Gibco™ #15040066) to detach them from the plate, washed, and incubated with free RPMI with different concentrations of CL27c for at least 2 h. Migration assay was subsequently performed by using a Boyden chamber toward C5a (50 nM, Sigma-Aldrich #SRP4895A) and CXCL12 (100 nM, Peprotech #250-20A) chemokines for 1 h at 37 °C, 5% CO2. Migrated BMDMs, attached to the polycarbonate of the Boyden chamber, were stained with Diff-Quik® reagent (MICROPTIC S.L. #DQ-ST) and counted at the microscope (5 fields/sample). The percentage of migrated cells was calculated by relating the number of the treated cells with the control vehicle (free RPMI).

[2] = Microsomial stability, human; assay type: in vitro ADME; settings: human liver microsomes, NADPH
Description: To define whether this prodrug was suitable for inhaled administration, CL27c was studied to evaluate selected ADME (absorption, distribution, metabolism, and excretion) and pharmacokinetic properties. First, stability of CL27c and CL27e was analyzed in mouse plasma (Supplementary Table 1) and in mouse, rat, and human liver microsomes in the presence of nicotinamide adenine dinucleotide phosphate (NADPH; Supplementary Table 2). Next, clearance of CL27c was analyzed in C57BL/6J mice after either intra-venous or oral administration. […] Clearance of CL27c and CL27e after oral administration could not be determined due to their low bioavailability (Supplementary Table 3). Next, pharmacokinetics after inhalation was studied in C57BL/6J mice after delivering an aerosolized micro-suspension of CL27c. As shown in Table 1 and Supplementary Fig. 1b, CL27c dose-dependently reached the lungs and its metabolite CL27e was detectable after inhalation of the highest dose. […] Therefore, the inhaled prodrug promotes local effects but prevents systemic absorption of pharmacologically relevant amounts of the active compound. […]
All tests for the microsomial stability of CL27c were conducted by the Istituto di Ricerche Biomediche (RBM) SpA – Merck Serono, Ivrea, Italy. […]
Then, cells […]
pretreated with different doses of CL27c were incubated at 37°C and 5% CO 2 for 10 minutes. […]

[3] = system: OVA-induced chronic allergic asthma; assay: OVA-induced chronic allergic asthma model; assay type: in vivo, BALB/c mice
Description: BALF was performed to obtain leukocytes from alveolar space. The trachea was exposed and a 1.7-mm-outside-diameter polyethylene catheter was inserted. BAL was performed by washing the lungs three-times with three different 500 µl aliquots of PBS. BALF samples were centrifuged at 600 × g for 10 min at 4 °C on a histology glass slide and stained with Diff Quick (MICROPTIC, #DQ-ST). The number of leukocytes and differential counts of different population were obtained evaluating the percentage leukocyte populations over the total cell number.
Mice were anesthetized with a subcutaneous injection of ketamine and xylazine (130 mg/Kg ketamine and 8.5 mg/Kg xylazine) to maintain spontaneous breathing under anesthesia. Mice were tracheostomized, placed in a body plethysmograph and connected to a computer-controlled ventilator (Forced Pulmonary Maneuver System®, Buxco Research Systems©, Wilmington, North Carolina USA). First, an average breathing frequency of 160 breaths/min was imposed to the anesthetized animal by a pressure-controlled ventilation until a regular breathing pattern and complete expiration at each breathing cycle was obtained. Under mechanical respiration, respiratory flow and airway pressure were measured to compute dynamic compliance (Cdyn) and lung resistance (RL). To measure the TLC, pressure–volume maneuvers were performed, where lungs were inflated to a standard pressure of +30 cm H2O and then let slowly exhale until a negative pressure of −30 cm H2O was reached. To measure the FEV Fast-Flow Volume maneuvers was performed. In this maneuver, lungs were first inflated to +30 cm H2O (TLC) and, immediately, a negative pressure (−30 cm H2O) was applied in order to enforce expiration. To evaluate AHR, the same mice used in previous maneuvers (basal condition) received Metacholine, 1 mg/Kg (Acetyl-β-methylcholine chloride, A-2251, Sigma-Aldrich St.Louis, MO,USA) i.v., and 20 sec after, a new set of maneuvers were conducted to assess RL changes. Suboptimal maneuvers were rejected and for each test in every single mouse at least three acceptable maneuvers were conducted to obtain a reliable mean for all numeric parameters.
On day 1, BALB/c mice received systemic immunization by subcutaneous injection of 10 µg of chicken egg ovalbumin (OVA grade V, >98% pure; Sigma, St Louis, MO) diluted in 2 mg/mL Al(OH)3 followed by a booster injection at the day 14 (described in fig. 3). Nasal challenges were performed starting at the day 28, by inhalational exposure to aerosolised ovalbumin (1% ovalbumin in saline 0,9%) for 20 min per day, in alternated days during 16 days (day 28, 30, 32, 34, 36, 38, 40, 42 and 44). At the same time, mice received daily treatment from day 28 to 44 with CL27c (2 mg/ml dissolved in 0.5 % tylaxopol/saline solution, aerosolized for 30′) or vehicle (0.5% tyloxapol/saline solution, aerosolized for 30′), or dexamethasone (5 mg/kg i.p. injection). Untreated control groups included mice challenged with PBS alone. On day 45, mice were sacrificed, and samples were collected for further analysis.
IL-5, IL-13, eotaxin, TGF-β, KC, IL-17A, and MCP-1 levels in the BALF and anti-OVA IgE levels in serum were measured by ELISA technique using commercial DuoSet kits R&D Systems according to the instructions of the manufacturer. Results were expressed in levels of cytokines per ml of […] (pg/ml) or arbitrary units (A.U.).
The left lung was removed and fixed in 4% neutral phosphate-buffered formalin (pH 7.4)[10]. The tissues were dehydrated gradually in ethanol, embedded in paraffin, cut into 4 µm sections, stained with H&E, Gomori’s trichrome and periodic acid schiff (PAS), and examined under light microscopy by a pathologist in a double blinded manner. Images of lung sections were captured with a digital camera (Optronics DEI-470) connected to a microscope (Olympus IX70) with a magnification of ×40 or ×100. […]

[4] = CL27c 2 mg/ml aerosol or dexamethasone 5 mg/kg
[5] = aerosolized CL27c 2 mg/ml daily

Question: Which results are given for `COC(=O)c1cccc(Cn2cc(-c3cccc4c(=O)cc(N5CCOCC5)[nH]c34)nn2)c1` [CL27c]?
Answer: chemotaxis of BMDM [1]: significantly reduce CXCL12- and C5a-induced chemotaxis; Clint (intrinsic clearance) [2]: 0.1 ± 0.03 ml/min/mg prot; t1/2 [2]: 10.2 ± 2.2 min; accumulation of inflammatory cells in peribronchial and perivascular spaces [3, 4]: significantly decreased; lung function: lung resistance (RL) and dynamic compliance (Cdyn) [3, 4]: normalize lung function; peribronchial fibrosis (fibrotic airway remodeling) [3, 4]: significantly reduced; methacholine-evoked airway hyperresponsiveness ([3]; aerosolized CL27c 2 mg/ml): not able to modify methacholine-evoked airway hyperresponsiveness; metaplasia of goblet cells and mucus production (PAS) [3, 5]: prevented OVA-induced metaplasia of goblet cells and mucus production; reduction of tissue levels of eosinophil peroxidase (EPO) [3, 5]: 55%; reduction of tissue levels of myeloperoxidase (MPO) [3, 5]: 50%; Th2 mediators IL-5, IL-13, and Eotaxin ([3]; repeated administration): lowering of Th2 mediators
